# Laboratory results published in patent publication US20250011311A1, “AMIDO HETEROAROMATIC COMPOUNDS” (AstraZeneca AB, priority 2022, published 2025).
# Experiments:
# [1] = biological target: over expressed HSD17β9 in HEK293S cells (Homo sapiens (Human), UniProt Q92781); assay: In Vitro 17bHSD9 Cell Assay; assay type: cell-based; conditions: HEK293S cells over expressing HSD17β9; retinol to retinal conversion, 18 h, LC-MS/MS; read-out: 17bHSD9 Cell assay IC50
# Outline: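 HEK293S cells overexpressing HSD17β9 were plated at 10K cells/well in DMEM + 10% FBS and cultured 18 h. Retinol-to-retinal conversion in media was quantified by LC-MS/MS (MRM) as retinal/(retinal + retinol). IC50 was fitted after normalisation to DMSO and full inhibition by a reference inhibitor.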
# human hepatocytes = assay: Assay A: Metabolic Stability in Human Hepatocytes; assay type: in vitro ADME; conditions: cryopreserved human hepatocytes, 10^6 viable cells/mL, 1 μM compound, 37° C.
# Outline: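 Cryopreserved hepatocytes (10^6 viable cells/mL) at 37° C with 1 μM test compound, sampled 0.5–120 min and quenched in MeCN. Parent measured by LC-MS/MS; CLint (μL/min/10^6 cells) from the slope of ln(parent concentration) vs time.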
# CYP2C9 = CYP2C9 (Homo sapiens (Human), UniProt P11712); assay: Assay B: Cytochrome P450 Inhibition 2C9
# [2] = biological target: over expressed HSD17β13 in HEK293S cells (Homo sapiens (Human), UniProt Q7Z5P4); assay: In Vitro 17bHSD13 Cell Assay; assay type: cell-based; conditions: HEK293S cells over expressing HSD17β13; estradiol to estrone conversion, 18 h, LC-MS/MS; read-out: 17bHSD1713 Cell assay IC50
# Outline: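 HEK293S cells overexpressing HSD17β13 convert estradiol to estrone; product read by LC-MS/MS (APCI, positive MRM) as AUC ratio estrone/(estrone+estradiol). Effect normalised between DMSO and maximal inhibition by a known inhibitor control; IC50 from curve fit.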
# Sequence of over expressed HSD17β13 in HEK293S cells (Q7Z5P4 20-300): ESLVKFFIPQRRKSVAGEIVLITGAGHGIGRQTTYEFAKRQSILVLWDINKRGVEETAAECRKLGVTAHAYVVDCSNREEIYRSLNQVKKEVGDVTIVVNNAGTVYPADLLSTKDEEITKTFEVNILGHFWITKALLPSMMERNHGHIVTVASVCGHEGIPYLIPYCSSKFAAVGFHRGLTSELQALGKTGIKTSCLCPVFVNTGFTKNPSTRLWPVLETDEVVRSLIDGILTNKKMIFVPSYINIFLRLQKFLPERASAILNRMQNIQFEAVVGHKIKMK
# Sequence of over expressed HSD17β9 in HEK293S cells (Q92781 whole entry): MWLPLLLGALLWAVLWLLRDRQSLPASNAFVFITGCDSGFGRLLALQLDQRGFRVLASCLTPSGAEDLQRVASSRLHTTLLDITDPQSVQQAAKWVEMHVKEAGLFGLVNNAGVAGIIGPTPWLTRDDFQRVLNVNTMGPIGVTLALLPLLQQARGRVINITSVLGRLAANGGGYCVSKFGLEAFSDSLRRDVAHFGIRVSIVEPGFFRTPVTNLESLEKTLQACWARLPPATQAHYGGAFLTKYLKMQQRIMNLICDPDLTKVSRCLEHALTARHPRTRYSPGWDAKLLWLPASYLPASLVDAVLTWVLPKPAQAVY
# Sequence of CYP2C9 (P11712 whole entry): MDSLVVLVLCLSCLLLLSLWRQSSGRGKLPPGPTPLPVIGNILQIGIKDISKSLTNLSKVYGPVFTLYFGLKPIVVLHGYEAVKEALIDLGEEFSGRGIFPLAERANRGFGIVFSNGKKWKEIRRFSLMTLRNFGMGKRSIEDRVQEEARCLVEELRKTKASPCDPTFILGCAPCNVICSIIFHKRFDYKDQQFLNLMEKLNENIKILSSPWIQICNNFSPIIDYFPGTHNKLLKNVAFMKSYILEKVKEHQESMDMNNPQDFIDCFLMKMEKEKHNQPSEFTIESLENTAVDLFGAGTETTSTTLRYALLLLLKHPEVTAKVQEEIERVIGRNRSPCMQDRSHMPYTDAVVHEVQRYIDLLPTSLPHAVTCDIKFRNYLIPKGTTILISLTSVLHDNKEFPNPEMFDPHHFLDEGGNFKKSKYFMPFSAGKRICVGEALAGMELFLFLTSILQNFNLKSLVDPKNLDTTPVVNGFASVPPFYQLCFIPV
IC50 [1] [µM],IC50 (CYP2C9) [µM],IC50 [2] [µM],Structure (SMILES),Assay A: Human Heps Met Clint GMean CLint (μl/min/1E6) (human hepatocytes)
39.5,17.2,0.22,"C[C@@H]1CN(C(=O)c2noc(-c3cc(F)c(F)c(O)c3F)n2)[C@H](C)CO1 [Example 50, ((2R,5R)-2,5-Dimethylmorpholino)(5-(2,4,5-trifluoro-3-hydroxyphenyl)-1,2,4-oxadiazol-3-yl)methanone]",4.3
> 50,3.7,0.14,"O=C(c1noc(-c2cc(F)c(F)c(O)c2F)n1)N1CCN(CCCOc2ccc(F)cc2)CC1 [Example 57, (4-(3-(4-Fluorophenoxy)propyl)piperazin-1-yl)(5-(2,4,5-trifluoro-3-hydroxyphenyl)-1,2,4-oxadiazol-3-yl)methanone]",9.5
> 50,3.1,0.25,"N#Cc1cccc2c1CCN(C(=O)c1noc(-c3cc(F)c(F)c(O)c3F)n1)C2 [Example 66, 2-(5-(2,4,5-Trifluoro-3-hydroxyphenyl)-1,2,4-oxadiazole-3-carbonyl)-1,2,3,4-tetrahydroisoquinoline-5-carbonitrile]",12.1
> 50,3,0.53,"Cn1nnc(-c2cnc(N3CCN(C(=O)c4noc(-c5cc(F)c(F)c(O)c5F)n4)CC3)c(Cl)c2)n1 [Example 67, (4-(3-Chloro-5-(2-methyl-2H-tetrazol-5-yl)pyridin-2-yl)piperazin-1-yl)(5-(2,4,5-trifluoro-3-hydroxyphenyl)-1,2,4-oxadiazol-3-yl)methanone]",6.6
21.1,4,0.54,"N#Cc1ccc2c(c1)CN(C(=O)c1noc(-c3cc(F)c(F)c(O)c3F)n1)CC2 [Example 86, 2-(5-(2,4,5-Trifluoro-3-hydroxyphenyl)-1,2,4-oxadiazole-3-carbonyl)-1,2,3,4-tetrahydroisoquinoline-7-carbonitrile]",12.3
36.3,15.4,0.06,"C[C@@H]1CN(C(=O)c2noc(-c3cc(F)c(F)c(O)c3F)n2)C[C@H](C)O1 [Example 87, ((2R,6S)-2,6-Dimethylmorpholino)(5-(2,4,5-trifluoro-3-hydroxyphenyl)-1,2,4-oxadiazol-3-yl)methanone]",2.7
> 50,1.2,1.42,"O=C(c1noc(-c2cc(F)c(F)c(O)c2F)n1)N1CCCC(OCc2ccccc2)C1 (stereo not shown) [Example 94, (3-(Benzyloxy)piperidin-1-yl)(5-(2,4,5-trifluoro-3-hydroxyphenyl)-1,2,4-oxadiazol-3-yl)methanone]",17.3
40.2,0.8,0.52,"O=C(c1noc(-c2cc(F)c(F)c(O)c2F)n1)N1CC[C@@H](Oc2ccccc2)C1 [Example 98, (R)-(3-Phenoxypyrrolidin-1-yl)(5-(2,4,5-trifluoro-3-hydroxyphenyl)-1,2,4-oxadiazol-3-yl)methanone]",26.7
38.9,> 30,15.8,"O=C(Nc1ccnn1C1CCCCC1)c1cc(-c2ccc(F)c(O)c2)on1 [Example 99, N-(1-Cyclohexyl-1H-pyrazol-5-yl)-5-(4-fluoro-3-hydroxyphenyl)isoxazole-3-carboxamide]",>300
> 50,7,0.49,"C[C@@H]1CN(C(=O)c2noc(-c3c(F)c(O)c(F)c(F)c3I)n2)C[C@H](C)O1 [Example 108, ((2S,6R)-2,6-Dimethylmorpholino)(5-(2,4,5-trifluoro-3-hydroxy-6-iodophenyl)-1,2,4-oxadiazol-3-yl)methanone]",8.8
32.4,5.4,0.39,"O=C(c1noc(-c2cc(F)c(F)c(O)c2F)n1)N1CCO[C@H]2CCC[C@H]21 [Example 112, ((4aR,7aS)-Hexahydrocyclopenta[b][1,4]oxazin-4(4aH)-yl)(5-(2,4,5-trifluoro-3-hydroxyphenyl)-1,2,4-oxadiazol-3-yl)methanone]",7.4
> 50,4.2,0.1,"O=C(c1noc(-c2cc(F)c(F)c(O)c2F)n1)N1CCO[C@@H]2CCC[C@@H]21 [Example 113, ((4aS,7aR)-Hexahydrocyclopenta[b][1,4]oxazin-4(4aH)-yl)(5-(2,4,5-trifluoro-3-hydroxyphenyl)-1,2,4-oxadiazol-3-yl)methanone]",7.3

# More lines, now with the values behind:
Structure (SMILES),IC50 [1] [µM],IC50 (CYP2C9) [µM],IC50 [2] [µM],Assay A: Human Heps Met Clint GMean CLint (μl/min/1E6) (human hepatocytes)
"O=C(c1noc(-c2cc(F)c(F)c(O)c2F)n1)N1CC2CCC(C1)C2(F)F [Example 43, (8,8-difluoro-3-azabicyclo[3.2.1]octan-3-yl)(5-(2,4,5-trifluoro-3-hydroxyphenyl)-1,2,4-oxadiazol-3-yl)methanone]",18.4,13.9,0.24,3.3
"CC(C)CC1CN(C(=O)c2noc(-c3cc(F)c(F)c(O)c3F)n2)CCO1 (stereo not shown) [Example 47, (2-Isobutylmorpholino)(5-(2,4,5-trifluoro-3-hydroxyphenyl)-1,2,4-oxadiazol-3-yl)methanone]",2.1,1,0.23,17.4
"O=C(c1noc(-c2cc(F)c(F)c(O)c2F)n1)N1CCN(CCOc2ccc(Br)cn2)CC1 [Example 69, (4-(2-((5-Bromopyridin-2-yl)oxy)ethyl)piperazin-1-yl)(5-(2,4,5-trifluoro-3-hydroxyphenyl)-1,2,4-oxadiazol-3-yl)methanone]",21.9,2.4,0.11,13.1
"O=C(c1noc(-c2cc(F)c(F)c(O)c2F)n1)N1CC(c2ccc(F)cc2)C1 [Example 74, (3-(4-Fluorophenyl)azetidin-1-yl)(5-(2,4,5-trifluoro-3-hydroxyphenyl)-1,2,4-oxadiazol-3-yl)methanone]",> 50,1.8,3,14.4
"CCCC1CCN(C(=O)c2noc(-c3cc(F)c(F)c(O)c3F)n2)C1 (stereo not shown) [Example 76, (3-Propylpyrrolidin-1-yl)(5-(2,4,5-trifluoro-3-hydroxyphenyl)-1,2,4-oxadiazol-3-yl)methanone]",19.6,2.6,0.14,18.2
"C[C@@H]1CN(C(=O)c2noc(-c3cc(F)c(F)c(O)c3F)n2)C[C@@H](C)O1 [Example 88, ((2R,6R)-2,6-Dimethylmorpholino)(5-(2,4,5-trifluoro-3-hydroxyphenyl)-1,2,4-oxadiazol-3-yl)methanone]",41.7,16.8,0.19,3.6
"C[C@@H]1CN(C(=O)c2cc(-c3cc(F)c(F)c(O)c3F)on2)C[C@H](C)O1 [Example 89, ((2R,6S)-2,6-Dimethylmorpholino)(5-(2,4,5-trifluoro-3-hydroxyphenyl)isoxazol-3-yl)methanone]",> 50,3.7,0.07,14.6
"O=C(c1noc(-c2cc(F)c(F)c(O)c2F)n1)N1CC[C@H](Oc2ccccc2)C1 [Example 93, (S)-(3-Phenoxypyrrolidin-1-yl)(5-(2,4,5-trifluoro-3-hydroxyphenyl)-1,2,4-oxadiazol-3-yl)methanone]",40.3,1.3,0.7,15.6
"O=C(c1noc(-c2cc(F)c(F)c(O)c2F)n1)N1CC[C@H](c2ccc(Cl)cc2)C1 [Example 95, (R)-(3-(4-Chlorophenyl)pyrrolidin-1-yl)(5-(2,4,5-trifluoro-3-hydroxyphenyl)-1,2,4-oxadiazol-3-yl)methanone]",17,1.1,0.21,12.9
"N#Cc1cccc2c1CCN(C(=O)c1noc(-c3c(F)c(O)c(F)c(F)c3I)n1)C2 [Example 109, 2-(5-(2,4,5-Trifluoro-3-hydroxy-6-iodophenyl)-1,2,4-oxadiazole-3-carbonyl)-1,2,3,4-tetrahydroisoquinoline-5-carbonitrile]",> 50,14.8,1.7,13.0
